Columns and labels:
Type in all cases: in vivo
Balb/c mice [1] = assay: Elevated plus maze; conditions: 0.1, 0.5, 2.5 mg/kg p.o., test on day 8, 15 minutes, in comparison to control mice
Description: This model uses the natural fear of rodents to avoid open and elevated places. The apparatus consists of a plus-maze with two enclosed and two opposite open arms, elevated above the floor. […] This is one of the most widely used models to study effects of anxiety-like behaviour. The maze consisted of two opposing open arms (40×10 cm) and two opposing closed arms (40×10 cm, with 40 cm walls) on a platform 50 cm above the ground.
The groups of mice were treated as in Example 2 and an elevated plus maze test was carried out on day 8. This test was used as a further test of the anxiolytic effect of the drugs of the invention.
The mice were placed in the centre of the maze facing an open arm and were allowed to freely explore the maze for 15 minutes. During this time, their behaviour was observed.

Balb/c mice [2] = assay: Forced swim test
Description: This is one of the most widely used tools for screening antidepressant activity preclinically in an acute test and was first described by Porsolt et al (1977). The test is based on the observation that rats and mice develop an immobile posture when placed in an inescapable cylinder of water. This behavior is considered to be a behavioural despair as opposed to an active form of coping with stressful conditions. An antidepressant will reduce immobility and increase motivated behaviour of the rodent to escape from the despaired conditions. This is evidenced by increase in time of swimming, distance moved, velocity and attempts to climb the walls (strong mobility). FST is considered a good screen tool with good reliability and predictive validity.
The test in male mice (Balb/c Harlan IL) was conducted after 4 days of drug administration (90 min post last drug administration). Round glass cylinders 18 cm diameter and 20 cm depth were used. Water temperature was 24-28° C. Motivated behaviour was defined by immobility, swimming and strong mobility. Immobility in the animals was defined by activity lower than 10% movement of the centre of gravity of the animal. Swimming was defined by the distance and the velocity of the animal, and climbing was related to strong mobility (movement of centre of gravity more than 30%). Animals were dropped to the cylinder for 6 min and scoring was performed in the last 4 min after 2 min of adaptation. All results were analyzed by the Noldus (Holland) system including a camera and software for animal behaviour analyses.
Mice were treated with compound 135S at three different concentrations (0.1 mg/kg, 0.5 mg/kg and 2.5 mg/kg), or with the anti-depressant Fluoxetine (10 mg/kg) administered orally in a daily dose for 14 days. The forced swim test was performed on […].
In a first trial, the mice were placed in a tank of water, from which they could not escape. The mobility and immobility of the mice was monitored. In a second trial, the same mice were placed back into the tank. The mobility and immobility of the mice was again monitored.

Balb/c mice [3] = assay: Open field test (exploratory locomotor activity); conditions: 0.1 or 5 mg/kg oral, subchronic; for time spent in zones 2 and 3: in comparison to control mice, FIG. 1F; for locomotor activity (distance moved, velocity, strong mobility and immobility): recorded over 20 minutes, in comparison to the control mice, FIG. 1A-1D
Description: This method is one of the most popular in evaluation of animals' behaviour. It tests both motility parameters and anxiety (Prut et al). An individual mouse is placed in a novel plexiglass arena of 50×50 cm the floor of which is divided into 3 digital zones. The outer peripheral zone 1, the medial zone 2 and the most central zone 3. The animal behaviour in the open field is recorded by videotaping for 20 min and analyzed subsequently digitally using Noldus software for animal behaviour. The measurements include general motility: distance moved, velocity and strong mobility, as well as anxiety parameters including frequency of visits to the central area, time spent in the inner field, and number of rearing events in the centre. The more the animal stays and performs in the centre, it is less anxious.
40, 9 week old naïve male Balb/c mice were divided in 5 groups (8 mice in each group) and treated daily (0 min, p.o.) for two weeks, as follows: • 1. Control—0.5% DMSO 0.3 ml/mouse, po (3 ml/10 mice) (15 μl DMSO+2994 μl DDW), n=8. • 2. Diclofenac 10 mg/Kg=0.3 mg/0.3 ml/mouse, i.p. (3 ml/10 mice), n=8 • 3. 135S 0.5 mg/Kg=0.015 mg/0.3 ml/mouse, po (3 ml/10 mice) (135S 0.15 mg (Stock 50 mg/1 ml DMSO) 3 μl+2997 μl DDW), n=8 • 4. 135S 2.5 mg/kg=0.075 mg/0.3 ml/mouse, po (3 ml/10 mice) ([…] 0.75 mg (Stock 50 mg/1 ml DMSO) 15 μl+2985 μl DDW), n=8 • 5. 135S 0.1 mg/Kg=0.003 mg/0.3 ml/mouse, po (3 ml/10 mice) (135S […] (Stock 50 mg/1 ml DMSO) 0.6 μl+2999.4 μl DDW), n=8
Fifteen days after treatment, the five groups of mice listed above were subjected to the open field test for […]. The activity of the mice was assessed by an EthoVision video track system (Noldus Ltd.) A centre zone (“zone 3”; approximately 16% of the total area), a border area (“zone 1”; an 8 cm wide border around the edge of the arena) and an intermediate zone (“zone 2”; the remaining area) were defined. Quantitative parameters, such as the distance travelled and average speed, were recorded for the centre zone and the entire arena.
An Open Field test measures activity in a novel environment and can be used to assess a combination of locomotor activity, exploratory drive, neophobia, agoraphobia and other aspects of anxiety or fear in mice, as well as motor function. Treatment using a 0.1 mg/kg or 5 mg/kg dose of 135S or 175S compound was compared to the effect of treatment with a control substance (DMSO) or Diclofenac. The mice were placed in the centre of the arena and their activity and behaviour was recorded over a period of 20 minutes in respect of the distance moved (cm), velocity (cm/s), strong mobility and immobility. The ratio of total duration between the inner zones 2 and 3 in comparison to the outer zone 1 was recorded. The total duration in the inner zones 2 and 3 was also determined.

Balb/c mice [4] = assay: Marble burying test; conditions: 0.1, 0.5 and 2.5 mg/kg p.o., test on day 15, 20 glass marbles, 20 minutes; against control mice; FIG. 4
Description: The marble burying test is a useful model of neophobia, anxiety and obsessive-compulsive behaviour. It has also been proposed that the test may have predictive validity for the screening of novel antidepressants, anxiolytics and antipsychotics. Mice can be expected to bury roughly 75% of the marbles in a 30 min period, although it varies with strain and gender. In this study, male Balb/c mice were used.
The groups of mice were treated as in Example 2 and a marble burying test was carried out on day 15. The mice were placed individually into a cage containing 20 glass marbles and exposed for 20 minutes. The number of marbles buried by the mice was monitored. […] This test provides further evidence of the anxiolytic properties of this compound, in particular with respect to treatment of obsessive compulsive disorder (OCD).

[5] = 0.1, 0.5 and 2.5 mg/kg oral, in comparison to control mice, FIG. 2A-2C

Compound	exploration of the maze (Balb/c mice [1]; FIG. 3A-3D)	time spent within the open arms (Balb/c mice [1]; FIG. 3B)	immobility (Balb/c mice [2]; [5])	mobility (Balb/c mice [2]; [5])	anti-depressant effect compared with Fluoxetine (Balb/c mice [2]; 135S 0.1, 0.5 and 2.5 mg/kg against Fluoxetine 10 mg/kg, oral)	time spent in zones 2 and 3 (Balb/c mice [3])	locomotor activity (distance moved, velocity, strong mobility and immobility) (Balb/c mice [3])	number of marbles buried (Balb/c mice [4])
CC(O)COCC(Cc1ccc(O)cc1)NC(=O)CCc1ccccc1 (stereo not shown) [Compound 135S]	increased exploration of the maze	increased time spent within the open arms	decrease	increase	greater than that resulting from treatment of mice with the common anti-depressant drug Fluoxetine	significant increase	did not show a significant effect	significantly less marbles than control mice
O=C(CCc1ccccc1)NC(COCCO)Cc1ccc(O)cc1 (stereo not shown) [Compound 175S]						significant increase	did not show a significant effect	
